In patent publication US11833160B2, “Ursodeoxycholic acid derivatives as HDAC inhibitors for the treatment of polycystic diseases” (UNIVERSIDAD DEL PAIS VASCO/EUSKAL HERRIKO UNIBERTSITATEA, priority 2017, dated 2023):
Values belong to the molecule of their own block, whether it stands above or below them.

Key:
human HDAC7 = target: T1, human HDAC7 (Homo sapiens, UniProt Q8WUI4); test: HDAC7 enzymatic activity assay (fluorogenic peptide); format: biochemical; settings: 10-dose, 3-fold serial dilution, triplicate
T1 construct: amino acids 518 end with GST N-terminal tag, MW=78 kDa; GST (N); purchased BioMol, Hamburg, Germany; host or cells: baculovirus expression system
T1 sequence (Q8WUI4 479-952 limits assumed): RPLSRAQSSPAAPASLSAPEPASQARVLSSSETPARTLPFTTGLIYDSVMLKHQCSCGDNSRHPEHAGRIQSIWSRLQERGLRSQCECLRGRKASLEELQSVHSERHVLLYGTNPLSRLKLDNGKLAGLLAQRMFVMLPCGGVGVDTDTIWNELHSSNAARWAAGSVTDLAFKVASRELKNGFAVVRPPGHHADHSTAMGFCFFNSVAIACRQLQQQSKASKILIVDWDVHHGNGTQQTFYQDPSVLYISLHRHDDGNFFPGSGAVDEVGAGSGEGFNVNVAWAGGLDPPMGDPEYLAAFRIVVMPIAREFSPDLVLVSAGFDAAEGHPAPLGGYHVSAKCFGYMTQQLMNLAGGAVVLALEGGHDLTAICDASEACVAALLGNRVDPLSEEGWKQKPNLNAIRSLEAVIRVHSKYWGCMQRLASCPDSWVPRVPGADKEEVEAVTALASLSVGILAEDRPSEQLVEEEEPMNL
Procedure: (§1) Peptide substrates: all HDAC assays were performed using acetylated peptide substrates labeled with 7-amino-4-methylcoumarin (AMC): • Substrate for isoforms HDAC1, 2, 3, 6, 10, 11, and HeLa nuclear extract assays: acetylated fluorogenic peptide from p53 residues 379-382 (RHKKAc). • Substrate for isoforms HDAC4, 5, 7, 9: fluorogenic Boc-L-Lys (s-trifluoroacetyl)-AMC. • Substrate for HDAC8 assays: acetylated fluorogenic peptide from p53 residues 379-382 (RHKAcKAc).
(§2) 50 μl of peptide substrate (see “peptide substrates” section above) and an optimal concentration of the corresponding enzyme (see “enzymes” section above) in the assay buffer at a final DMSO concentration of 1% were incubated in the presence of gradient concentrations of inhibitors (10-dose IC50 mode with 3-fold serial dilution) at 30° C. for 2 hours. The reactions were carried out in a 96-well microplate for fluorometry in a 50 μl reaction volume. After the deacetylation reaction, Fluor-de-Lys-Developer (BioMol Cat. #KI-105) was added to each well to digest the deacetylated substrate, thereby producing the fluorescent signal. The reaction was carried out for 45 minutes at 30° C. with 5% CO2; the fluorescent signal was then measured using an excitation wavelength of 360 nm and an emission wavelength of 460 nm in a microplate-reading fluorometer (GeminiXS, Molecular Devices, Sunnyvale, CA). A curve of deacetylated standard (Biomol, Cat. #KI-142; made from 100 μM with 1:2 dilution and 10 doses, 6 μl) allowed the conversion of the fluorescent signal into micromoles of deacetylated product. All experiments were performed in triplicate. The IC50s were calculated by fitting the experimental data to dose-response curve. DMSO was used as negative control; Trichostatin A (Biomol Cat. #GR-309) was used as positive control inhibitor.
(§3) Enzymatic activity assays were carried out in 11 HDAC enzymes, including HDAC6.

human HDAC8 = target: T2, human HDAC8 (Homo sapiens, UniProt Q9BY41); test: HDAC8 enzymatic activity assay (fluorogenic peptide); format: biochemical; settings: 10-dose, 3-fold serial dilution, triplicate
T2 construct: purchased BioMol SE-145; host or cells: E. coli
T2 sequence (Q9BY41 1-377): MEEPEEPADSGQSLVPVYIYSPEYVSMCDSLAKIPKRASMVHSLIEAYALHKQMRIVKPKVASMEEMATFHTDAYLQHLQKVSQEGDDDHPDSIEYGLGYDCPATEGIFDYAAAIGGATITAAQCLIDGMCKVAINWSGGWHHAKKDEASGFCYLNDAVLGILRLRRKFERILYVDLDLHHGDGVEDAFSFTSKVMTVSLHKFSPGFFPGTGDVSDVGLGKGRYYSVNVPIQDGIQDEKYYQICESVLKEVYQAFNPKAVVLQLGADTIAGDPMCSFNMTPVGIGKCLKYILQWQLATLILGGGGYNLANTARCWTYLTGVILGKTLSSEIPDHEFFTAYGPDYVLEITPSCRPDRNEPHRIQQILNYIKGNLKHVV
Procedure: as §1, §2, §3

human HDAC5 = target: T3, human HDAC5 (Homo sapiens, UniProt Q9UQL6); test: HDAC5 enzymatic activity assay (fluorogenic peptide); format: biochemical; settings: 10-dose, 3-fold serial dilution, triplicate
T3 construct: GST (N); purchased BioMol, Hamburg, Germany; host or cells: baculovirus / Sf9 cells
T3 sequence (Q9UQL6 1-1123 isoform Q9UQL6-3): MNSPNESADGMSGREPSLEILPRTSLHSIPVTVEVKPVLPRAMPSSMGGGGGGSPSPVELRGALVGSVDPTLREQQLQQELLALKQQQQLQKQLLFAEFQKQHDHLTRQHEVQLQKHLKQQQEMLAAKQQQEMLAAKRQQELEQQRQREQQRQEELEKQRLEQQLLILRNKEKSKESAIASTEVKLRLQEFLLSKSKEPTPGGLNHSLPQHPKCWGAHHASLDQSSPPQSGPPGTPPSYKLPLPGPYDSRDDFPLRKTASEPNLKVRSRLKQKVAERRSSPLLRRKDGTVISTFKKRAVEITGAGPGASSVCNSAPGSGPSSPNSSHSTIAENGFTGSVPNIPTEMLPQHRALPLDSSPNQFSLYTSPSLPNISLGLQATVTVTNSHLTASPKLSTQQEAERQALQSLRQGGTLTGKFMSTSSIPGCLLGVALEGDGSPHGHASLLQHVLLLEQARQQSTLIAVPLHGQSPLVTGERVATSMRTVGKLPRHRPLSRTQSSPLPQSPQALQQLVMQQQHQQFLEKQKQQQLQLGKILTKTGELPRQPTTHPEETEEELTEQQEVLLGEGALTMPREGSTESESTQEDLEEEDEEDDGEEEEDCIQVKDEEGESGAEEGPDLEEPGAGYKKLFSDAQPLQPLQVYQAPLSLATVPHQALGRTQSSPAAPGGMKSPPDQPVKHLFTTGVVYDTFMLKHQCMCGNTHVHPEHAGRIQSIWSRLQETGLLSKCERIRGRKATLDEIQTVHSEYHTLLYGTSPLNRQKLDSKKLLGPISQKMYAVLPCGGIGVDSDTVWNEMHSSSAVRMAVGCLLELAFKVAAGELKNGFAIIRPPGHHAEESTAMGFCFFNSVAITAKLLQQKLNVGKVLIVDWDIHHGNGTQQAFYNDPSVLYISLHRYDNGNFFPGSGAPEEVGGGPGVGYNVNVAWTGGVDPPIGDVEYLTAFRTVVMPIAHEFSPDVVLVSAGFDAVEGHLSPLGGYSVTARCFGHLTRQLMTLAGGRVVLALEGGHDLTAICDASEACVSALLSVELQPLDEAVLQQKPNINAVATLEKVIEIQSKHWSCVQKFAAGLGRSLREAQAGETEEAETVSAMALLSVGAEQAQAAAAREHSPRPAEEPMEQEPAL
Procedure: as §1
50 μl of peptide substrate (see “peptide substrates” section above) and an optimal concentration of the corresponding enzyme (see “enzymes” section above) in the assay buffer at a final DMSO concentration of 1% were incubated in the presence of gradient concentrations of inhibitors (10-dose IC50 mode with 3-fold serial dilution) at 30° C. for 2 hours. The reactions were carried out in a 96-well microplate for fluorometry in a 50 μl reaction volume. After the deacetylation reaction, Fluor-de-Lys-Developer (BioMol Cat. #KI-105) was added to each well to digest the deacetylated substrate, thereby producing the fluorescent signal. The reaction was carried out for 45 minutes at 30° C. with 5% CO2; the fluorescent signal was then measured using an excitation wavelength of 360 nm and an emission wavelength of 460 nm in a microplate-reading fluorometer (GeminiXS, Molecular Devices, Sunnyvale, CA). […]

HDAC enzymes = test: Enzymatic activity assays in 11 HDAC enzymes (statements on the panel); format: biochemical, human; settings: for inhibitory capacity with respect to the rest of the HDAC enzymes: HDAC enzymes other than HDAC6
Procedure: as §1, §2, §3

human HDAC1 = target: T4, human HDAC1 (Homo sapiens, UniProt Q13547); test: HDAC1 enzymatic activity assay (fluorogenic peptide); format: biochemical; settings: for IC50: 10-dose, 3-fold serial dilution, triplicate
T4 construct: GST (C); purchased BioMol SE-456; host or cells: baculovirus / Sf9 cells
T4 sequence (Q13547 whole entry): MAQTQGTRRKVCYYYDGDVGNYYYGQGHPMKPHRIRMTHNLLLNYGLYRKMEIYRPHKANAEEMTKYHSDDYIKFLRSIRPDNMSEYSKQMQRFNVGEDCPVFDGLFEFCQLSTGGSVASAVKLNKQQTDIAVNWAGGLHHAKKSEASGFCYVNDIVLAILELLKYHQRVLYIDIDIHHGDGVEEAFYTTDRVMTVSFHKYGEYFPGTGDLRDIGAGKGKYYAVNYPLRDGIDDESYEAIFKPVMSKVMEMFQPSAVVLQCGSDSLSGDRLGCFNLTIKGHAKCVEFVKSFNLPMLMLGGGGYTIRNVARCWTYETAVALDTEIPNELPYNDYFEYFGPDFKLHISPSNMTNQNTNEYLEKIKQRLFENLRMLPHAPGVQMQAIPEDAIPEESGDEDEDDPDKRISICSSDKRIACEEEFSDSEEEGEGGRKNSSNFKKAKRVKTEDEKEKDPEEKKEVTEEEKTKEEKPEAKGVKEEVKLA
Procedure: as §1, §2, §3

human HDAC6 = target: T5, human HDAC6 (Homo sapiens, UniProt Q9UBN7); test: HDAC6 enzymatic activity assay (fluorogenic peptide); format: biochemical; settings: for IC50: 10-dose, 3-fold serial dilution, triplicate; for HDAC6 selectivity proportion: matches IC50 HDAC1 / IC50 HDAC6
T5 construct: GST (N); purchased BioMol SE-508; host or cells: baculovirus / Sf9 cells
T5 sequence (Q9UBN7 1-1215): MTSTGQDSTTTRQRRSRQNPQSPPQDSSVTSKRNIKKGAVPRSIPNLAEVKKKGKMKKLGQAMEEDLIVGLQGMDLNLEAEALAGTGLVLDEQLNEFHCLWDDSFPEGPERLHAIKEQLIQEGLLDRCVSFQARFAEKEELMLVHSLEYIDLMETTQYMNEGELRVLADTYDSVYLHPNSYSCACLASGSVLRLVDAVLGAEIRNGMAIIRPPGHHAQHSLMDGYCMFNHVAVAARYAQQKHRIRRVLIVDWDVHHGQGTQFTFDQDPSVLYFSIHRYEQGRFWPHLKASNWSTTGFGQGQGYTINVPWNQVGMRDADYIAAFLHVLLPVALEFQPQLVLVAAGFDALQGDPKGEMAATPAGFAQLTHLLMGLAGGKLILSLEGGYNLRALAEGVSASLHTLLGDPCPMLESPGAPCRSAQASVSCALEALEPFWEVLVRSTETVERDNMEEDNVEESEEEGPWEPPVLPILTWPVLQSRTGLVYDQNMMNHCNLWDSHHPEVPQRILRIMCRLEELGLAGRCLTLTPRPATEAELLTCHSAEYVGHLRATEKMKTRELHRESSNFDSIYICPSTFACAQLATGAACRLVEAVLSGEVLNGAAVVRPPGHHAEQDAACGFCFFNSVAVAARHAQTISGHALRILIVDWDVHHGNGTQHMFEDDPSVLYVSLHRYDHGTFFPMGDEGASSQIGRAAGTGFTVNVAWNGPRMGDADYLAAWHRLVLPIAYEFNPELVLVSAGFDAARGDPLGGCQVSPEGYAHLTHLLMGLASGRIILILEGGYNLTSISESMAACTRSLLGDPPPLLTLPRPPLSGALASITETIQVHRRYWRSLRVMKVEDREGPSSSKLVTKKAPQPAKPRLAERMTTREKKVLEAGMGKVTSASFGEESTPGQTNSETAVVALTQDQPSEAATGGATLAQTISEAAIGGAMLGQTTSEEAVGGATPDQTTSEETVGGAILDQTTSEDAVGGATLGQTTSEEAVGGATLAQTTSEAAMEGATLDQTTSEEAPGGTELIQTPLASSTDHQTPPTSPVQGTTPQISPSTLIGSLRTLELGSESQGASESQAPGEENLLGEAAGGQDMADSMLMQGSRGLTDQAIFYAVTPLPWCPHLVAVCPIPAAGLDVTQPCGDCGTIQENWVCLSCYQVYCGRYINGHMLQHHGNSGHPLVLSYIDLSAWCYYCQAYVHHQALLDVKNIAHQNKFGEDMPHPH
Procedure: as §1, §2, §3

human HDAC2 = target: T6, human HDAC2 (Homo sapiens, UniProt Q92769); test: HDAC2 enzymatic activity assay (fluorogenic peptide); format: biochemical; settings: 10-dose, 3-fold serial dilution, triplicate
T6 construct: His (C); purchased BioMol SE-500; host or cells: baculovirus / Sf9 cells
T6 sequence (Q92769 whole entry): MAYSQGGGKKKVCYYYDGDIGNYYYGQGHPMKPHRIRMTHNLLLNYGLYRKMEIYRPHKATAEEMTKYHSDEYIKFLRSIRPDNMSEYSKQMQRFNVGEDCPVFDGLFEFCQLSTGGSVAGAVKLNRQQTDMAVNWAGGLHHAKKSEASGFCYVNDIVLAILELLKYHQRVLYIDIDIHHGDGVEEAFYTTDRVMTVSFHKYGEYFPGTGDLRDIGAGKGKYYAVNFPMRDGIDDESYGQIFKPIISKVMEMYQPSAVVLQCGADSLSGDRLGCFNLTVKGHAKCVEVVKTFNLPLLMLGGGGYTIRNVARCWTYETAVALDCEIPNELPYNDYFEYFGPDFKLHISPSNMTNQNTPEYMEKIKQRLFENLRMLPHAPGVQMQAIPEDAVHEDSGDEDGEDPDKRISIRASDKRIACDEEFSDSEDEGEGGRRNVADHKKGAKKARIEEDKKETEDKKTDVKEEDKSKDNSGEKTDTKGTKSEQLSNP
Procedure: as §1, §2, §3

Compound: NCc1ccc(C(=O)NO)cc1 [4-(aminomethyl)-N-hydroxybenzamide, reference compound]
IC50 (human HDAC7): 14.7 µM
IC50 (human HDAC8): 13.6 µM
IC50 (human HDAC5): 435 µM

Compound: C[C@H](CCC(=O)NCc1ccc(C(=O)NCc2ccc(C(=O)NO)cc2)cc1)[C@H]1CC[C@H]2[C@@H]3[C@@H](O)C[C@@H]4C[C@H](O)CC[C@]4(C)[C@H]3CC[C@]12C [Ig, 4-(((R)-4-((3R,5S,7S,8R,9S,10S,13R,14S,17R)-3,7-dihydroxy-10,13-dimethylhexadecanohydro-1H-cyclopenta[a]phenanthren-17-yl)pentanamido)methyl)-N-(4-(hydroxycarbamoyl)benzyl)benzamide]
inhibitory capacity with respect to the rest of the HDAC enzymes (HDAC enzymes): micromolar range
IC50 (human HDAC1): 15200 nM
melting point: 187 to 189 °C
selectivity and inhibitory capacity with respect to HDAC6 enzyme (human HDAC6): nanomolar range
IC50 (human HDAC6): 4.26 nM
HDAC6 selectivity proportion (human HDAC6): 3574

Compound: C[C@H](CCC(=O)NCc1ccc(C(=O)Nc2ccccc2N)cc1)[C@H]1CC[C@H]2[C@@H]3[C@@H](O)C[C@@H]4C[C@H](O)CC[C@]4(C)[C@H]3CC[C@]12C [Ii, N-(2-aminophenyl)-4-(((R)-4-((3R,5S,7S,8R,9S,10S,13R,14S,17R)-3,7-dihydroxy-10,13-dimethylhexadecahydro-1H-cyclopenta[a]phenanthren-17-yl)pentanamide)methyl)benzamide]
IC50 (human HDAC2): 516 nM
IC50 (human HDAC1): 140 nM
HDAC1 selectivity proportion (human HDAC1; matches IC50 HDAC6 / IC50 HDAC1): 58
melting point: 168 to 170 °C
IC50 (human HDAC6): 8080 nM

Compound: C[C@H](CCC(=O)NCc1ccc(C(=O)Nc2cc(-c3ccccc3)ccc2N)cc1)[C@H]1CC[C@H]2[C@@H]3[C@@H](O)C[C@@H]4C[C@H](O)CC[C@]4(C)[C@H]3CC[C@]12C
melting point: 163 to 165 °C

Compound: C[C@H](NC(=O)CC[C@@H](C)[C@H]1CC[C@H]2[C@@H]3[C@@H](O)C[C@@H]4C[C@H](O)CC[C@]4(C)[C@H]3CC[C@]12C)C(=O)NO
melting point: 170 to 172 °C

Compound: C[C@H](CCC(=O)NCCCCCC(=O)NO)[C@H]1CC[C@H]2[C@@H]3[C@@H](O)C[C@@H]4C[C@H](O)CC[C@]4(C)[C@H]3CC[C@]12C [If, 6-((R)-4-((3R,5S,7S,8R,9S,10S,13R,14S,17R)-3,7-dihydroxy-10,13-dimethylhexadecahydro-1H-cyclopenta[a]phenanthren-17-yl)pentanamide)-N-hydroxyhexanamide]
inhibitory capacity with respect to the rest of the HDAC enzymes (HDAC enzymes): micromolar range
IC50 (human HDAC1): 2570 nM
melting point: 125 to 127 °C
selectivity and inhibitory capacity with respect to HDAC6 enzyme (human HDAC6): nanomolar range
IC50 (human HDAC6): 82.1 nM
HDAC6 selectivity proportion (human HDAC6): 31

Compound: C[C@H](CCC(=O)O)[C@H]1CC[C@H]2[C@@H]3[C@@H](O)C[C@@H]4C[C@H](O)CC[C@]4(C)[C@H]3CC[C@]12C [UDCA, ursodeoxycholic acid]
inhibitory activity on any HDAC (HDAC enzymes; in the assayed concentration range): no inhibitory activity whatsoever

Compound: C[C@H](CCC(=O)NCCCC(=O)NO)[C@H]1CC[C@H]2[C@@H]3[C@@H](O)C[C@@H]4C[C@H](O)CC[C@]4(C)[C@H]3CC[C@]12C
melting point: 165 to 167 °C

The remaining lines, values ahead:

melting point: 157 to 158 °C
Compound: C[C@H](CCC(=O)Nc1ccccc1S)[C@H]1CC[C@H]2[C@@H]3[C@@H](O)C[C@@H]4C[C@H](O)CC[C@]4(C)[C@H]3CC[C@]12C

melting point: 149 to 151 °C
Compound: C[C@H](CCC(=O)NCc1ccc(C(=O)NO)o1)[C@H]1CC[C@H]2[C@@H]3[C@@H](O)C[C@@H]4C[C@H](O)CC[C@]4(C)[C@H]3CC[C@]12C

melting point: 180 to 182 °C
Compound: C[C@H](CCC(=O)NCCC(=O)NO)[C@H]1CC[C@H]2[C@@H]3[C@@H](O)C[C@@H]4C[C@H](O)CC[C@]4(C)[C@H]3CC[C@]12C

melting point: 116 to 117 °C
Compound: C[C@H](CCC(=O)NCCS)[C@H]1CC[C@H]2[C@@H]3[C@@H](O)C[C@@H]4C[C@H](O)CC[C@]4(C)[C@H]3CC[C@]12C
